Experimental data from US8247556B2, “Method for preparing 6-substituted-7-aza-indoles” (Amgen Inc., priority 2005, dated 2012).

Experiments:
CYP 2D6 = molecular target: T1, CYP 2D6 (Homo sapiens, UniProt P10635); test: Human Liver Microsome CYP 2D6 Inhibition; format: in vitro ADME; conditions: human liver microsomes, bufuralol substrate; read-out: inhibited CYP2D6 microsomes, IC50
T1 construct: followed by 555.6 ml of 20 mg/mL HLM (BD Gentest); tissue BD Gentest; host or cells: human liver microsomes
T1 sequence (P10635 whole entry): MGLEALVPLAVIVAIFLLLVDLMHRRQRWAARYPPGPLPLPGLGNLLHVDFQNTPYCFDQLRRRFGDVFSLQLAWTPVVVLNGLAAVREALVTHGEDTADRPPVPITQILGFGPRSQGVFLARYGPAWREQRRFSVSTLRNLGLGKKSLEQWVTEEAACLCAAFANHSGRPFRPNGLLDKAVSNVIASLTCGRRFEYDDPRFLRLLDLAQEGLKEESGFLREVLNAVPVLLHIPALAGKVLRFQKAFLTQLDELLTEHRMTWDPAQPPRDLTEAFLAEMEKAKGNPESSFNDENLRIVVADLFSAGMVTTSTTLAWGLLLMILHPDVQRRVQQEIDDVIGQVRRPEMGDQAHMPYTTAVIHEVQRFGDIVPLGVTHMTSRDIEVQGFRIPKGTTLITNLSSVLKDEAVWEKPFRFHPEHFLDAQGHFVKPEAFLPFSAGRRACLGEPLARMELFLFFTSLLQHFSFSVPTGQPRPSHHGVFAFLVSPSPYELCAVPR
Experimental: Determining the IC-50 for Human Liver Microsome CYP 2D6 Inhibition
Postassium Phosphate Buffer pH 7.4 (39.333 mL) is chilled in an ice bath and added to a 50 ml plastic tube. A 3.2 mM bufuralol solution is prepared. 111.1 ul of 3.2 mM bufuralol is added to the buffer followed by 555.6 ml of 20 mg/mL HLM (BD Gentest). The incubation mixture was gently inverted and equilibrated at 37° C. for 5 min. A stock inhibitor solution is prepared, such as in DMSO. Incubation mixture (801 ul) is added into 96-well, 1.2 mL plastic tubes. Inhibitor is added at various concentrations (e.g. 30 μM to […]). The tubes are sealed and mix by inverting 5 times gently. The incubation mixture containing inhibitor (270 μL) is added by aliquot into wells of a 1 mL, 96-well block (duplicate). The block is placed into a 37° C. water bath and equilibrated for 3 minutes. 10 mM NADPH (30 ml) is added to all samples. After 5 min, the reactions are stopped by adding 300 ml of Quench Solution [0.1% TFA in CH3CN]. 1′-OH-bufuralol-d9 (750 ng/mL 30 μL) is added, the block is gently vortexed then centrifuged at 3000 rpm for 10 min at 4° C. 50 μL of supernatant from all samples is added by aliquot into a shorter, 96-well block. The aliquoted supernatants are pooled with other assay(s) and HPLC Grade Water (50 μL) is added to all samples. After covering and shaking by vortex gently for 2 minutes, the solutions were analyzed by LC-MS (API 3000, 5% MeOH w/0.1% AcOH to 95% MeOH w/0.1% AcOH). 500 nM quinidine is used as a control.

CYP 3A4 = molecular target: T2, CYP 3A4 (Homo sapiens, UniProt P08684); test: Human Liver Microsome CYP 3A4 Inhibition; format: in vitro ADME; conditions: human liver microsomes, midazolam substrate; read-out: inhibited CYP3A4 microsomes, IC50
T2 construct: followed by 222.2 ml of 20 mg/mL HLM (BD Gentest); tissue BD Gentest; host or cells: human liver microsomes
T2 sequence (P08684 whole entry): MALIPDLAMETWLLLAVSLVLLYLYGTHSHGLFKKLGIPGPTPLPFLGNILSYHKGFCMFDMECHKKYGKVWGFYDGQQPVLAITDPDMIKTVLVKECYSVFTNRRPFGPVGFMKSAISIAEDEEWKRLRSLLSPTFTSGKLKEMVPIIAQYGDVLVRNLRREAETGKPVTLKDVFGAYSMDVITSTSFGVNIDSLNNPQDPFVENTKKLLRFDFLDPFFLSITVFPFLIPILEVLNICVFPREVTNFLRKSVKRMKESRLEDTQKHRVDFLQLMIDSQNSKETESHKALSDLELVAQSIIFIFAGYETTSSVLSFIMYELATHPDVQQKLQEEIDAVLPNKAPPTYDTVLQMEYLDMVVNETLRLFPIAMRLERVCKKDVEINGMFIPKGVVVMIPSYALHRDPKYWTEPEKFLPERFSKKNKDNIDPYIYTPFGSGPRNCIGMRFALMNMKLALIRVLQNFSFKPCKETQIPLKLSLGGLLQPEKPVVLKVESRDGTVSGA
Experimental: Determining the IC-50 for Human Liver Microsome CYP 3A4 Inhibition
Postassium Phosphate Buffer pH 7.4 (39.667 mL) is chilled in an ice bath and added to a 50 ml plastic tube. A 2 mM midazolam solution is prepared. 111.1 ul of 2 mM midazolam is added to the buffer followed by 222.2 ml of 20 mg/mL HLM (BD Gentest). The incubation mixture was gently inverted and equilibrated at 37° C. for 5 min. A stock inhibitor solution is prepared, such as in DMSO. Incubation mixture (801 ul) is added into 96-well, 1.2 mL plastic tubes. Inhibitor is added at various concentrations (e.g. 30 uM to 120 nM). The tubes are sealed and mix by inverting 5 times gently. The incubation mixture containing inhibitor (270 uL) is added by aliquot into wells of a 1 mL, 96-well block (duplicate). The block is placed into a 37° C. water bath and equilibrated for 3 min. 10 mM NADPH (30 ml) is added to all samples. After 5 minutes, the reactions are stopped by adding 300 ml of Quench Solution [0.1% TFA in CH3CN]. 1′-OH-Midazolam-d313C (2 mg/mL 30 uL) is added, the block is gently vortexed then centrifuged at 3000 rpm for 10 minutes at 4° C. 50 μL of supernatant from all samples is added by aliquot into a shorter, 96-well block. The aliquoted supernatants are pooled with other assay(s) and HPLC Grade Water (50 ul) is added to all samples. After covering and shaking by vortex gently for 2 minutes, the solutions were analyzed by LC-MS (API 3000,5% MeOH w/0.1% AcOH to 95% MeOH w/0.1% AcOH). 37 nM ketoconazole is used as a control.

[1] = system: VEGF-stimulated HUVEC proliferation (Human Umbilical Vein Endothelial cells); test: HUVEC Proliferation Assay; format: cell-based; conditions: VEGF 50 ng/mL, 72 h, CyQuant fluorescent dye, read-out: inhibited VEGF-stimulated HUVEC proliferation at a level
Outline: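 HUVEC (passage 2–3) were seeded in DMEM+10% FBS for 22 h, then pre-incubated 2–3 h with 5-point, 5-fold compound dilutions (0.25% DMSO). They were then stimulated with VEGF (50 ng/mL final) for 72 h at 37 °C. Proliferation was read by CyQuant fluorescence (485/530 nm) after freeze-thaw, and IC50 came from a 4-parameter fit.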

IC50 (CYP 2D6) [µM] | IC50 (CYP 3A4) [µM] | SMILES | IC50 [1] [µM]
> 20 | > 20 | Cc1cc(NC(=O)c2cc(F)cnc2NCc2ccnc3[nH]ncc23)ccc1C(C)C [Example 121, 5-Fluoro-N-(3-methyl-4-(1-methylethyl)phenyl)-2-((1H-pyrazolo[3,4-b]pyridin-4-ylmethyl)amino)-3-pyridinecarboxamide] | < 0.5
> 20 | > 20 | CC1(C)CC(=O)Nc2cc(NC(=O)c3cccnc3NCc3c[nH]c4ncccc34)ccc21 [Example 41, N-(4,4-Dimethyl-2-oxo-1,2,3,4-tetrahydro-7-quinolinyl)-2-((1H-pyrrolo[2,3-b]pyridin-3-ylmethyl)amino)-3-pyridinecarboxamide] | < 0.5
> 20 | > 20 | CC1(C)CNc2cc(NC(=O)c3cc(F)cnc3NCc3ccnc4[nH]ccc34)ccc21 [Example 130, N-(3,3-Dimethyl-2,3-dihydro-1H-indol-6-yl)-5-fluoro-2-((1H-pyrrolo[2,3-b]pyridin-4-ylmethyl)amino)-3-pyridinecarboxamide] | < 0.5
> 20 | > 20 | O=C(Nc1cc(OC[C@H]2CCCO2)cc(C(F)(F)F)c1)c1cccnc1NCc1ccnc2[nH]ccc12 [Example 36, 2-[(1H-pyrrolo[2,3-b]pyridin-4-ylmethyl)amino]-N-[3-[(2R)-tetrahydrofuran-2-ylmethoxy]-5-(trifluoromethyl)phenyl]nicotinamide] | < 0.5
10 | 9.8 | CC1(C)CNCc2cc(NC(=O)c3cccnc3NCc3ccnc4[nH]ccc34)ccc21 [Example 1, N-(4,4-Dimethyl-1,2,3,4-tetrahydroisoquinolin-7-yl)-2-[(1H-pyrrolo[2,3-b]pyridin-4-ylmethyl)amino]nicotinamide] | < 0.5
– | > 20 | O=C(Nc1cccc(C(O)(C(F)(F)F)C(F)(F)F)c1)c1cccnc1NCc1ccnc2[nH]ccc12 [Example 18, 2-[(1H-Pyrrolo[2,3-b]pyridin-4-ylmethyl)amino]-N-{3-[2,2,2-trifluoro-1-hydroxy-1-(trifluoromethyl)ethyl]phenyl}nicotinamide] | < 0.5
> 20 | > 20 | CC(C)(C)c1ccc(NC(=O)c2cc(F)cnc2NCc2ccnc3[nH]ncc23)cc1 [Example 125, N-(4-(1,1-Dimethylethyl)phenyl)-5-fluoro-2-((1H-pyrazolo[3,4-b]pyridin-4-ylmethyl)amino)-3-pyridinecarboxamide] | < 0.5
– | > 20 | O=C(Nc1cccc(C(F)(F)F)c1)c1cc(F)cnc1NCc1ccnc2[nH]ccc12 [Example 98, 5-fluoro-2-((1H-pyrrolo[2,3-b]pyridin-4-ylmethyl)amino)-N-(3-(trifluoromethyl)phenyl)-3-pyridinecarboxamide] | < 0.5
> 20 | > 20 | Cc1nc2cc(NC(=O)c3cccnc3NCc3ccnc4c3CC(=O)N4)ccc2s1 [Example 74, N-(2-methyl-1,3-benzothiazol-5-yl)-2-(((2-oxo-2,3-dihydro-1H-pyrrolo[2,3-b]pyridin-4-yl)methyl)amino)-3-pyridinecarboxamide] | –
– | > 20 | CN1CCC[C@H]1COc1cc(NC(=O)c2cccnc2NCc2ccnc3[nH]ccc23)ccc1C(F)(F)C(F)(F)F [Example 65, N-(3-((((2S)-1-methyl-2-pyrrolidinyl)methyl)oxy)-4-(pentafluoroethyl)phenyl)-2-((1H-pyrrolo[2,3-b]pyridin-4-ylmethyl)amino)-3-pyridinecarboxamide] | < 0.5
– | > 20 | CC(C)c1nc2cc(NC(=O)c3cc(F)cnc3NCc3ccnc4[nH]ccc34)ccc2s1 [Example 103, 5-fluoro-N-(2-(1-methylethyl)-1,3-benzothiazol-5-yl)-2-((1H-pyrrolo[2,3-b]pyridin-4-ylmethyl)amino)-3-pyridinecarboxamide] | < 0.5
– | > 20 | CN1CCC[C@@H]1COc1cc(NC(=O)c2cccnc2NCc2ccnc3[nH]ccc23)ccc1C(F)(F)F [Example 68, N-(3-((((2R)-1-methyl-2-pyrrolidinyl)methyl)oxy)-4-(trifluoromethyl)phenyl)-2-((1H-pyrrolo[2,3-b]pyridin-4-ylmethyl)amino)-3-pyridinecarboxamide] | < 0.5
– | > 20 | O=C(Nc1ccc(C(F)(F)C(F)(F)F)c(OC[C@@H]2CCCN2)c1)c1cccnc1NCc1ccnc2[nH]ccc12 [Example 72, N-(4-(Pentafluoroethyl)-3-(((2S)-2-pyrrolidinylmethyl)oxy)phenyl)-2-((1H-pyrrolo[2,3-b]pyridin-4-ylmethyl)amino)-3-pyridinecarboxamide] | < 0.5
> 20 | > 20 | CC1(C)CC(=O)Nc2cc(NC(=O)c3cccnc3NCc3ccnc4c3CCN4)ccc21 [Example 30, 2-[(2,3-Dihydro-1H-pyrrolo[2,3-b]pyridin-4-ylmethyl)amino]-N-(4,4-dimethyl-2-oxo-1,2,3,4-tetrahydroquinolin-7-yl)nicotinamide] | –
– | > 20 | CCc1nc2cc(NC(=O)c3cc(F)cnc3NCc3ccnc4[nH]ccc34)ccc2o1 [Example 92, N-(2-ethyl-1,3-benzoxazol-5-yl)-5-fluoro-2-((1H-pyrrolo[2,3-b]pyridin-4-ylmethyl)amino)-3-pyridinecarboxamide] | < 0.5
– | > 20 | O=C(Nc1ccc(C(F)(F)F)c(Cl)c1)c1cc(F)cnc1NCc1ccnc2[nH]ncc12 [Example 127, N-(3-Chloro-4-(trifluoromethyl)phenyl)-5-fluoro-2-((1H-pyrazolo[3,4-b]pyridin-4-ylmethyl)amino)-3-pyridinecarboxamide] | < 0.5
> 20 | > 20 | CC(C)(C)c1ccc(NC(=O)c2cc(F)cnc2NCc2ccnc3[nH]ccc23)cc1 [Example 79, N-(4-(1,1-dimethylethyl)phenyl)-5-fluoro-2-((1H-pyrrolo[2,3-b]pyridin-4-ylmethyl)amino)-3-pyridinecarboxamide] | –
8.7 | 2.7 | CC(C)(C)c1ccc(NC(=O)c2cccnc2NCc2ccncc2)cc1 [N-(4-tert-Butylphenyl)-2-((4-pyridinylmethyl)amino)-3-pyridinecarboxamide, reference compound] | –
– | > 20 | O=C(Nc1ccc(Br)cc1)c1cc(F)cnc1NCc1ccnc2[nH]ccc12 [Example 89, N-(4-bromophenyl)-5-fluoro-2-((1H-pyrrolo[2,3-b]pyridin-4-ylmethyl)amino)-3-pyridinecarboxamide] | < 0.5
– | > 20 | O=C(Nc1ccc(C(F)(F)F)c(F)c1)c1cc(F)cnc1NCc1ccnc2[nH]ccc12 [Example 107, 5-fluoro-N-(3-fluoro-4-(trifluoromethyl)phenyl)-2-((1H-pyrrolo[2,3-b]pyridin-4-ylmethyl)amino)-3-pyridinecarboxamide] | < 0.5
